Assays:
[1] = tested on: 4T1 cells; assay: Detection of ROS production (CellROX Green, confocal); type: cell-based, murine; settings: 100 μM, positive control
Experimental: To measure the potential oxidative stress in living cells, as a consequence of the presence of the BMNPs, CelIROX® Green Reagent (ThermoFisher) was used following the protocol recommended by the manufacturer. Briefly, cells (approximately 20×10^3 4T1/well) were seeded on glass coverslips in 24-well plates. After their exposure to different concentrations (0.1, 1, 10, 100 μg/mL), in the presence and absence of a gradient magnetic field, of BMNPs for 4 hours, the cells were washed with PBS and CelIROX® Green Reagent was added to a final concentration of 5 μM in 300 μl of DMEM medium without serum. Then, the plate was incubated in the dark at 37° C. for 30 minutes. Menadione (100 μM) was used as a positive control. After the incubation time, the coverslips were washed with PBS pH 7.2, fixed with 4% paraformaldehyde in PBS, washed again and permeabilized with 0.1% Triton-X100 for 10 minutes. Finally, the coverslips were stained and mounted on specimen slides (Biosigma). […] Therefore, the emission of green fluorescence (at 485/520 nm) is stable and is produced after the DNA binding, and therefore its signal is mainly located in the nucleus and in the mitochondria. Fluorescence was detected using a Spectral Confocal Leica TCS SP2 AOBS microscope. […]

[2] = tested on: 4T1 cells; assay: Confocal analysis of DOXO internalization; type: cell-based, murine; settings: soluble drug, positive control
Experimental: Cells (approximately 20×10^3 4T1/well) were seeded on glass coverslips in 24-well plates and, after 24 h, soluble DOXO (as a positive control) or DOXO-BMNP suspensions were added. After incubation at 37° C. for different periods of time (30 seconds, 5 and 30 minutes) in the absence (−GMF) and in the presence (+GMF) of a gradient magnetic field, coverslips were washed with fresh PBS pH 7.2 and fixed with paraformaldehyde (2% wt in PBS). To minimize unspecific interactions and permeabilize cells, coverslips were washed with Tris-Buffered Saline (TBS) containing 5% Bovine Serum Albumin (BSA), 0.1% Triton X-100 and 5% got serum and then stained. In particular cytoskeletal actin microfilaments were stained with FITC-phalloidin (Sigma-Aldrich, excitation at 488 nm; emission at 500-535 nm) and nuclei were stained with TO-PRO-3 (1/70, Life Technologies; excitation at 633 nm; emission at 650-750 nm). DOXO was detected after excitation at 476 nm and emission at 575-630 nm. Fluorescence was detected using a Leica TCS SP2 AOBS Spectral Confocal Scanner microscope. Images were taken at 400× magnification. ImageJ software was used for analysis.

[3] = tested on: 4T1 tumors; assay: In vivo magnetic targeting and antitumor activity; parameters: species or system BALB/c mice; settings: day 15, 2 mg/kg DOXO i.v. x5
Source text: Female BALB/c mice were inoculated with 10^5 4T1 cells into a mammary gland fat pad. […] The 6 groups were intravenously injected and treated as follows: i) PBS (control), ii-iii) DOXO-BMNPs +/−gradient magnetic field, iv-v) BMNPs +/−gradient magnetic field, and vi) soluble DOXO. […] The magnetic field was applied by attaching a 10 mm in diameter×3 mm thick N42 neodymium magnet (1.8 kg pull, Magnet Expert Ltd) with 3MTM Vetbond™ tissue adhesive on the tumor site and keeping it attached for 1 hour after the injection. This neodymium magnet, with a magnetic anisotropy normal to the plane and a saturation magnetization of 800 emu/cc, could generate a direct current (d.c.) magnetic field of the order of 100 Oe a few millimeters from the surface. Therefore, the effect of the magnet is equivalent to the application of a local 100-Oe external d.c. magnetic field immediately after the administration of the nanoparticles. Throughout the study, body weight and tumor volumes (measured with caliper) were recorded every 3-4 days. Three days after the last injections (day 18), mice were euthanized, their weights, as well as, tumor weights were recorded and, then, tumors, hearts, livers, spleens, brains, lungs, and kidneys were collected for histology. Histological sections of the tumors were prepared for hematoxylin-eosin and Prussian blue staining to analyze particle biodistribution.

CC1=CC(=O)c2ccccc2C1=O [Menadione]
ROS release [1]: clearly visible

COc1cccc2c1C(=O)c1c(O)c3c(c(O)c1C2=O)C[C@@](O)(C(=O)CO)C[C@@H]3O[C@H]1C[C@H](N)[C@H](O)[C@H](C)O1 [soluble DOXO, doxorubicin]
internalization of DOXO in cell nuclei (confocal) [2]: detected only after 5 min | tumor volume [3]: significantly reduced
